Reference: patent US10526320B2, “Pyrrolidine derivatives as PPAR agonists” (GUANGDONG RAYNOVENT BIOTECH CO., LTD., priority 2016, dated 2020)
Where two headings read alike, the source gives them in different places.

Key:
Format in all cases: cell-based
[1] = target: T1, PPAR Delta (Homo sapiens, UniProt Q03181); experiment: PathHunter NHR protein interaction / nuclear translocation agonist test, PPAR Delta; conditions: for Emax: read-out: PPAR Delta Maximum Activation Response %
T1 sequence (Q03181 1-441): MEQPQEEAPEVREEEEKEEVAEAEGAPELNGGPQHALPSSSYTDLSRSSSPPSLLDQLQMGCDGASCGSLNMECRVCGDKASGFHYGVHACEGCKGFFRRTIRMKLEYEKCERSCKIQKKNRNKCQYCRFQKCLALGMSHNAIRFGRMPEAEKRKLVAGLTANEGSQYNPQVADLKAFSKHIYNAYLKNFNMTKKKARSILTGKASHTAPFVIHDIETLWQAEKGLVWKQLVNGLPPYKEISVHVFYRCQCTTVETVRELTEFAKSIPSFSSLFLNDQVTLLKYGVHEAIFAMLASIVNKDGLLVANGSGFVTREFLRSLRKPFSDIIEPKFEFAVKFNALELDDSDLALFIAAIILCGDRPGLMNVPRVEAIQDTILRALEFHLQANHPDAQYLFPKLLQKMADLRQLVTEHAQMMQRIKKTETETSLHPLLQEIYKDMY

[2] = target: T2, PPAR Gamma (Homo sapiens, UniProt P37231); experiment: PathHunter NHR protein interaction / nuclear translocation agonist test, PPAR Gamma; conditions: for Emax: read-out: PPAR Gamma Maximum Activation Response %
T2 sequence (P37231 1-505): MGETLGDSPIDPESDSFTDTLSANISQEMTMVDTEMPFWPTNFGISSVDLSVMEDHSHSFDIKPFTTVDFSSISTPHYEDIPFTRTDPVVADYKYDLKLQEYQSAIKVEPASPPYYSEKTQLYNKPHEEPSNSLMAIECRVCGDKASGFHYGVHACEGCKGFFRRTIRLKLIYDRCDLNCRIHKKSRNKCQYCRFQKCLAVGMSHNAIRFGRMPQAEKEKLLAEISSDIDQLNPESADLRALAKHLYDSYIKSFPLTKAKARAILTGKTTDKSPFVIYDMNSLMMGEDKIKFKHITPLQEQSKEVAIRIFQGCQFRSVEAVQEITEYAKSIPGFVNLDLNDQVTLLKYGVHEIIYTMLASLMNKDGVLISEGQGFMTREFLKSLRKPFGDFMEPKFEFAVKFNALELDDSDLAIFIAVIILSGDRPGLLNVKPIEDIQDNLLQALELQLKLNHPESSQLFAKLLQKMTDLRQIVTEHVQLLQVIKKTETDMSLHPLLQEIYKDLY

[3] = target: T3, PPAR Alpha (Homo sapiens, UniProt Q07869); experiment: PathHunter NHR protein interaction / nuclear translocation agonist test, PPAR Alpha; conditions: for Emax: read-out: PPAR Alpha Maximum Activation Response %
T3 sequence (Q07869 1-468): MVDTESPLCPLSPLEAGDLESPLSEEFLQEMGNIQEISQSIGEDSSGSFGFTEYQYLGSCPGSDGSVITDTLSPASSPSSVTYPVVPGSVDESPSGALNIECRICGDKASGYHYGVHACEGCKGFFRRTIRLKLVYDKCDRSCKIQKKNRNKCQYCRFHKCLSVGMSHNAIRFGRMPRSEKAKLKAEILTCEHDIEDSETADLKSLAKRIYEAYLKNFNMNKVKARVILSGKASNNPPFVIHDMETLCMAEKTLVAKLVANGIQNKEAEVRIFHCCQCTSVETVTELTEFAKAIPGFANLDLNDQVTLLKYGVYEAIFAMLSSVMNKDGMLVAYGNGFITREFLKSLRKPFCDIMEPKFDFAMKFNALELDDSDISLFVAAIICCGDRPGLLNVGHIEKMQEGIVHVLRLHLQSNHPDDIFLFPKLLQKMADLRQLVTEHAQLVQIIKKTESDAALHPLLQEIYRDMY

[4] = agonist mode, read-out: PPAR Gamma EC50
[5] = agonist mode, read-out: PPAR Alpha EC50
[6] = agonist mode, read-out: PPAR Delta EC50
[7] = relative to known PPARδ agonist L-165,041 = 100%
[8] = relative to known PPARγ agonist Troglitazone = 100%

Row | EC50 [2, 4] [nM] | Emax [1, 7] [%] | Emax [2, 8] [%] | Structure (SMILES) | Emax [1] [%] | Emax [2] [%] | EC50 [3, 5] [nM] | Emax [3] [%] | EC50 [1, 6] [nM] | PPAR Alpha Maximum Activation Response % [3] | EC50 ([1]; PPAR Delta EC50 nM) [nM] | EC50 ([2]; PPAR Gamma EC50 nM) [nM] | EC50 ([3]; PPAR Alpha EC50 nM) [nM] | PPAR Delta Maximum Activation Response % [1]
1 | > 250 |  |  | CSc1ccc(C(=O)/C=C/c2cc(C)c(OC(C)(C)C(=O)O)c(C)c2)cc1 [GFT-505, Elafibranor, reference compound] | 50 to 80 | 50 to 80 | > 250 | 80 to 100 |  |  |  |  |  | 
2 |  |  |  | CSc1ccc(C(=O)[C@H]2CN(C)C[C@@H]2CCc2cc(C)c(OC(C)(C)C(=O)O)c(C)c2)cc1 (racemic) [Compound 55] | 50 to 80 | < 50 |  | < 50 |  |  | 200 to 250 | > 250 | > 250 | 
3 | 150 to 200 | 80 to 100 | 80 to 100 | Cc1cc(CCC2CN(C(=O)Oc3ccccc3)CC2C(=O)c2ccc(Cl)s2)cc(C)c1OC(C)(C)C(=O)O (single isomer, unassigned) [Compound 47] |  |  | < 100 | 80 to 100 | < 100 |  |  |  |  | 
4 | 200 to 250 | 80 to 100 | 80 to 100 | CSc1ccc(C(=O)C2CN(C(=O)Oc3ccccc3)CC2CCc2ccc(OC(C)(C)C(=O)O)c(C)c2)cc1 (single isomer, unassigned) [Compound 81] |  |  | < 100 | 80 to 100 | 100 to 150 |  |  |  |  | 
5 | > 250 | 80 to 100 | 80 to 100 | CSc1ccc(C(=O)C2CN(C(=O)Oc3ccccc3)CC2Cc2ccc(OC(C)(C)C(=O)O)c(F)c2)cc1 (single isomer, unassigned) [Compound 78] |  |  | 100 to 150 | 80 to 100 | 100 to 150 |  |  |  |  | 
6 | > 250 | 80 to 100 | 80 to 100 | CSc1ccc(C(=O)C2CN(C(=O)Oc3ccccc3)CC2Cc2ccc(OC(C)(C)C(=O)O)cc2)cc1 (single isomer, unassigned) [Compound 76] |  |  | 100 to 150 | 80 to 100 | 100 to 150 |  |  |  |  | 
7 | > 250 | 80 to 100 | 80 to 100 | CSc1ccc(C(=O)C2CN(C(=O)Oc3ccccc3)CC2CCc2ccc(OC(C)(C)C(=O)O)cc2)cc1 (single isomer, unassigned) [Compound 80] |  |  | < 100 | 80 to 100 | 150 to 200 |  |  |  |  | 
8 |  | 80 to 100 |  | CSc1ccc(C(=O)[C@@H]2CN(S(C)(=O)=O)C[C@H]2CCc2cc(C)c(OC(C)(C)C(=O)O)c(C)c2)cc1 (single isomer, unassigned) [Compound 75] |  |  | > 250 | 80 to 100 | 200 to 250 |  |  |  |  | 
9 |  |  |  | CSc1ccc(C(=O)[C@@H]2CN(C(C)=O)C[C@H]2CCc2cc(C)c(OC(C)(C)C(=O)O)c(C)c2)cc1 (racemic) [Compound 71] | 80 to 100 |  | 200 to 250 | 80 to 100 | 150 to 200 |  |  |  |  | 
10 |  |  |  | CSc1ccc(C(=O)C2CN(C(C)=O)CC2c2cc(C)c(OC(C)(C)C(=O)O)c(C)c2)cc1 (single isomer, unassigned) [Compound 21] | 50 to 80 |  | > 250 | 80 to 100 | > 250 |  |  |  |  | 
11 |  | 80 to 100 |  | CSc1ccc(C(=O)[C@@H]2CN(C(=O)Oc3ccc(Cl)c(Cl)c3)C[C@H]2c2cc(C)c(OC(C)(C)C(=O)O)c(C)c2)cc1 (single isomer, unassigned) [Compound 43] |  |  | < 100 | 80 to 100 | < 100 |  |  |  |  | 
12 |  |  |  | CSc1ccc(C(=O)C2CN(C(=O)Oc3cccc(Cl)c3)CC2c2cc(C)c(OC(C)(C)C(=O)O)c(C)c2)cc1 (single isomer, unassigned) [Compound 38] |  |  | < 100 | 80 to 100 | 150 to 200 |  |  |  |  | 
13 |  |  |  | CSc1ccc(C(=O)C2CN(C(=O)Oc3ccc(C)cc3)CC2c2cc(C)c(OC(C)(C)C(=O)O)c(C)c2)cc1 (single isomer, unassigned) [Compound 39] | 80 to 100 |  | < 100 | 80 to 100 | 100 to 150 |  |  |  |  | 
14 |  |  |  | CSc1ccc(C(=O)C2CN(C(=O)Oc3ccc(F)cc3)CC2Cc2cc(C)c(OC(C)(C)C(=O)O)c(C)c2)cc1 (single isomer, unassigned) [Compound 28] | 50 to 80 |  | < 100 | 80 to 100 | < 100 |  |  |  |  | 
15 |  |  |  | CSc1ccc(C(=O)C2CN(C(=O)Oc3ccc(F)cc3)CC2c2cc(C)c(OC(C)(C)C(=O)O)c(C)c2)cc1 (single isomer, unassigned) [Compound 35] | 50 to 80 |  | 200 to 250 | 80 to 100 | 150 to 200 |  |  |  |  | 
16 |  |  |  | CSc1ccc(C(=O)[C@H]2CN(C(=O)Nc3ccc(Cl)cc3)C[C@@H]2c2cc(C)c(OC(C)(C)C(=O)O)c(C)c2)cc1 (racemic) [Compound 37] | 50 to 80 |  | < 100 | 80 to 100 | 200 to 250 |  |  |  |  | 
17 |  | 80 to 100 |  | CSc1ccc(C(=O)C2CN(C(=O)OC3CCCC3)CC2CCc2cc(C)c(OC(C)(C)C(=O)O)c(C)c2)cc1 (single isomer, unassigned) [Compound 74] |  |  | < 100 | 80 to 100 | 100 to 150 |  |  |  |  | 
18 |  |  |  | COc1ccc(OC(=O)N2CC(C(=O)c3ccc(SC)cc3)[C@@H](c3cc(C)c(OC(C)(C)C(=O)O)c(C)c3)C2)cc1 (mixture of isomers) [Compound 15] | 50 to 80 |  | 150 to 200 | 80 to 100 | 200 to 250 |  |  |  |  | 
19 |  |  |  | CSc1ccc(C(=O)[C@H]2CN(C(=O)Oc3cnn(C)c3)C[C@@H]2Cc2cc(C)c(OC(C)(C)C(=O)O)c(C)c2)cc1 (racemic) [Compound 48] | 50 to 80 |  | < 100 | 50 to 80 | 100 to 150 |  |  |  |  | 
20 |  |  |  | CSc1ccc(C(=O)C2CN(C(=O)Oc3ccc(Cl)cc3)CC2Cc2cc(C)c(OC(C)(C)C(=O)O)c(C)c2)cc1 (single isomer, unassigned) [Compound 27] | 50 to 80 |  | < 100 | 80 to 100 | < 100 |  |  |  |  | 
21 |  | 50 to 80 |  | COCCN1CC(CCc2cc(C)c(OC(C)(C)C(=O)O)c(C)c2)C(C(=O)c2ccc(SC)cc2)C1 (centres unmarked) [Compound 59] |  |  | 200 to 250 | 50 to 80 | 200 to 250 |  |  |  |  | 

Row | Structure (SMILES) | EC50 [2, 4] [nM] | Emax [1, 7] [%] | Emax [2, 8] [%] | Emax [1] [%] | Emax [2] [%] | EC50 [3, 5] [nM] | Emax [3] [%] | EC50 [1, 6] [nM] | PPAR Alpha Maximum Activation Response % [3] | EC50 ([1]; PPAR Delta EC50 nM) [nM] | EC50 ([2]; PPAR Gamma EC50 nM) [nM] | EC50 ([3]; PPAR Alpha EC50 nM) [nM] | PPAR Delta Maximum Activation Response % [1]
22 | CSc1ccc(C(=O)[C@H]2CNC[C@@H]2CCc2cc(C)c(OC(C)(C)C(=O)O)c(C)c2)cc1 (racemic) [Compound 56] | > 250 |  |  | 50 to 80 | < 50 | > 250 | < 50 | 200 to 250 |  |  |  |  | 
23 | COC(=O)N1C[C@@H](C(=O)c2ccc(SC)cc2)[C@H](c2cc(C)c(OC(C)(C)C(=O)O)c(C)c2)C1 (single isomer, unassigned) [Compound 5] | > 250 |  |  | 50 to 80 | < 50 | > 250 |  | 100 to 150 | I (key: 100% ≥ I ≥ 80%; 80% ≥ II ≥ 50%; III < 50%) |  |  |  | 
24 | CSc1ccc(C(=O)C2CN(C(=O)Oc3ccc(Br)cc3)CC2c2cc(C)c(OC(C)(C)C(=O)O)c(C)c2)cc1 (centres unmarked) [Compound 46] | > 250 |  |  | 80 to 100 | 80 to 100 | < 100 | 80 to 100 | < 100 |  |  |  |  | 
25 | Cc1cc(CCC2CN(C(=O)Oc3ccccc3)CC2C(=O)c2ccc(Cl)cc2)cc(C)c1OC(C)(C)C(=O)O (single isomer, unassigned) [Compound 66] | 150 to 200 |  |  |  |  | < 100 |  | < 100 |  |  |  |  | I (key: 100% ≥ I ≥ 80%; 80% ≥ II ≥ 50%; III < 50%)
26 | Cc1cc(CCC2CN(C(=O)Oc3ccccc3)CC2C(=O)c2ccc(Cl)cc2)cc(C)c1OC(C)(C)C(=O)O (single isomer, unassigned) [Compound 65] | 200 to 250 |  |  | 80 to 100 |  | < 100 |  | < 100 |  |  |  |  | 
